Like-named read-outs stand apart in the source and are kept apart here.
What was measured:
NAMPT = molecular target: T1, NAMPT (Homo sapiens, UniProt P43490); assay: Biochemical inhibition assay: NAMPT enzymatic reaction, NMN quantified by mass spectrometry; conditions: read-out: Biochem IC50
T1 construct: His tag; host or cells: E. coli
Procedure, shortened: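 Inhibition of E. coli-expressed His-tagged human NAMPT, measured as NMN formation by mass spectrometry after a 30 min room-temperature reaction containing 1 μM NAM, 100 μM PRPP and 2.5 mM ATP.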

A2780 cells = assay: In-vitro cell proliferation assay (SRB), A2780 cells; type: cell-based; conditions: A2780 cells, 72 hours, read-out: A2780 IC50
Procedure, shortened: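 Read-out is SRB absorbance at 570 nm on TCA-fixed cells after 72 hours of compound treatment at 37° C. in 5% CO2. Background from a media-only plate is subtracted, and % inhibition is interpolated between two tested concentrations.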

[1] = Homo sapiens, A2780, 72 h, SRB assay

T1 sequence (P43490 whole entry): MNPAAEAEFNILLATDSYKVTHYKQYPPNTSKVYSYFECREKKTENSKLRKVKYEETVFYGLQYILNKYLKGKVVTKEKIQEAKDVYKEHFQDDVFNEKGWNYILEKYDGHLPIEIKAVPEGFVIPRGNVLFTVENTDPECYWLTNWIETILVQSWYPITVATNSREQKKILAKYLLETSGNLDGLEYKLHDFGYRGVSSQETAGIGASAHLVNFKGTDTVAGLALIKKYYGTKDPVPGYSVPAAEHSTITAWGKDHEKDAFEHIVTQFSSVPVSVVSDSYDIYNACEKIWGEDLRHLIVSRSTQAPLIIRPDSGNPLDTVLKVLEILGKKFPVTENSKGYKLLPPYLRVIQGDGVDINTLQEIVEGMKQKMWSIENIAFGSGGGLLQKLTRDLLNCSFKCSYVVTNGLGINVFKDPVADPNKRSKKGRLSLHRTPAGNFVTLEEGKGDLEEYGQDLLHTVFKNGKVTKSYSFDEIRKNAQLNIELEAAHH

Row | SMILES | IC50 (NAMPT; NAMPT enzymatic reaction) [nM] | IC50 (A2780 cells; [1]) [nM] | IC50 (A2780 cells; Homo sapiens, A2780, 72 h, SRB) [nM] | IC50 (NAMPT; NAMPT enzymatic assay) [nM] | IC50 (A2780 cells; SRB) [nM]
1 | O=C(NCc1ccc(S(=O)(=O)c2ccccc2)cc1)c1cn2ccncc2n1 [N-{[4-(benzenesulfonyl)phenyl]methyl}imidazo[1,2-a]pyrazine-2-carboxamide] | 1490 | > 30000 | – | – | –
2 | CCCOc1cccc(S(=O)(=O)c2ccc(CNC(=O)c3cnc4nccn4c3)cc2)c1 | 4.8 | – | 7.5 | – | –
3 | CC(C)c1ccc(S(=O)(=O)c2ccc(CNC(=O)c3ccc4nccn4c3)cc2)cc1 [N-[(4-{[4-(propan-2-yl)benzene]sulfonyl}phenyl)methyl]imidazo[1,2-a]pyridine-6-carboxamide] | – | – | 6.66 | 14.6 | –
4 | CCCCOc1ccc(S(=O)(=O)c2ccc(CNC(=O)c3cc4cnccc4[nH]3)cc2)cc1F | 53.6 | – | 13.4 | – | –
5 | N#Cc1ccccc1S(=O)(=O)c1ccc(CNC(=O)c2cc3cnccc3[nH]2)cc1 [N-({4-[(2-cyanobenzene)sulfonyl]phenyl}methyl)-1H-pyrrolo[3,2-c]pyridine-2-carboxamide] | 25.3 | – | 62.9 | – | –
6 | O=C(NCc1ccc(S(=O)(=O)c2ccc(-n3cccn3)cc2F)cc1)c1cc2ccncc2s1 [N-[(4-{[2-fluoro-4-(1H-pyrazol-1-yl)benzene]sulfonyl}phenyl)methyl]thieno[2,3-c]pyridine-2-carboxamide] | 6 | 8 | – | – | –
7 | O=C(NCc1ccc(S(=O)(=O)c2cc(F)cc(OCC(F)(F)F)c2)cc1)c1cc2ccncc2s1 [N-[(4-{[3-fluoro-5-(2,2,2-trifluoroethoxy)benzene]sulfonyl}phenyl)methyl]thieno[2,3-c]pyridine-2-carboxamide] | – | – | 3.5 | 2.9 | –
8 | O=C(NCc1ccc(S(=O)(=O)c2ccc(OCC(F)(F)F)c(F)c2)cc1)c1cc2ccncc2s1 | – | – | 23.5 | 4.6 | –
9 | CN(C)C(=O)c1ccccc1S(=O)(=O)c1ccc(CNC(=O)c2cc3ccncc3o2)cc1 | – | – | 1000 to 10000 | 100 to 1000 | –
10 | O=C(NCc1ccc(S(=O)(=O)c2ccc(OC(F)(F)F)cc2)cc1)c1cc2ccncc2o1 | – | – | – | 9.4 | 27.7
11 | O=C(NCc1ccc(S(=O)(=O)c2cccc(C(=O)N3CCOCC3)c2)cc1)c1cnc2[nH]ncc2c1 | – | – | 100 to 1000 | 124 | –
12 | CC(C)(C)c1cccc(S(=O)(=O)c2ccc(CNC(=O)c3cc4ccncc4o3)cc2)c1 | 9.3 | – | 7 | – | –
13 | O=C(NCc1ccc(S(=O)(=O)c2cnc3ccccc3c2)cc1)c1cnc2[nH]ncc2c1 [N-{[4-(quinoline-3-sulfonyl)phenyl]methyl}-1H-pyrazolo[3,4-b]pyridine-5-carboxamide] | – | – | 4.4 | 5.2 | –
14 | CC(C)NC(=O)c1cccc(S(=O)(=O)c2ccc(CNC(=O)c3cnc4nccn4c3)cc2)c1 | – | – | 65.8 | 7 | –
15 | O=C(NCc1ccc(S(=O)(=O)c2ccc(C(F)(F)F)nc2)cc1)c1cc2ccncc2s1 [N-({4-[6-(trifluoromethyl)pyridine-3-sulfonyl]phenyl}methyl)thieno[2,3-c]pyridine-2-carboxamide] | – | – | 6.7 | 7.6 | –
16 | COc1ccc(S(=O)(=O)c2ccc(CNC(=O)c3cc4ccncc4o3)cc2)cc1F | 2.2 | – | 6.8 | – | –
17 | Cc1cc(Cl)cnc1S(=O)(=O)c1ccc(CNC(=O)c2cnc3[nH]ncc3c2)cc1 [N-{[4-(5-chloro-3-methylpyridine-2-sulfonyl)phenyl]methyl}-1H-pyrazolo[3,4-b]pyridine-5-carboxamide] | – | – | 75.3 | 62.5 | –
18 | Cc1cccc(S(=O)(=O)c2ccc(CNC(=O)c3ccc4nccn4c3)cc2)c1C [N-({4-[(2,3-dimethylbenzene)sulfonyl]phenyl}methyl)imidazo[1,2-a]pyridine-6-carboxamide] | 43.3 | – | 9.85 | – | –
19 | COc1cc(S(=O)(=O)c2ccc(CNC(=O)c3cnc4nccn4c3)cc2)ccc1F | 4.9 | – | 10.8 | – | –
20 | Cc1cc(C)cc(S(=O)(=O)c2ccc(CNC(=O)c3cc4ccncc4o3)cc2)c1 | 16.7 | – | 2.8 | – | –

— patent US12336981B2, “Compounds and compositions for the inhibition of NAMPT” (Valo Health, Inc., priority 2010, dated 2025)
